Assay results from PubChem BioAssay (NCI).
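Exposure lasted 48 hours, with cells grown in 96-well plates and compounds tested at five concentrations. Here, GI50 denotes the concentration required for 50% inhibition of growth. TGI: concentration producing complete growth inhibition.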

Key:
Test in all cases: NCI anticancer screen, dose series, 48 h
[1] = tested on: 786-0 renal
[2] = tested on: A498 renal
[3] = tested on: A549 NSCLC
[4] = tested on: ACHN renal
[5] = tested on: BT-549 breast
[6] = tested on: CAKI-1 renal
[7] = tested on: CCRF-CEM leukemia
[8] = tested on: COLO 205 colon
[9] = tested on: DU-145 prostate
[10] = tested on: EKVX NSCLC
[11] = tested on: HCC-2998 colon
[12] = tested on: HCT-116 colon
[13] = tested on: HCT-15 colon
[14] = tested on: HL-60(TB) leukemia
[15] = tested on: HOP-62 NSCLC
[16] = tested on: HOP-92 NSCLC
[17] = tested on: HS 578T breast
[18] = tested on: HT29 colon
[19] = tested on: IGROV1 ovarian
[20] = tested on: K-562 leukemia
[21] = tested on: KM12 colon
[22] = tested on: M14 melanoma
[23] = tested on: MALME-3M melanoma
[24] = tested on: MCF7 breast
[25] = tested on: MDA-MB-231 breast
[26] = tested on: MDA-MB-435
[27] = tested on: MOLT-4 leukemia
[28] = tested on: NCI-H226 lung
[29] = tested on: NCI-H23 lung
[30] = tested on: NCI-H460 lung
[31] = tested on: NCI-H522 lung
[32] = tested on: NCI/ADR-RES ovarian
[33] = tested on: OVCAR-3 ovarian
[34] = tested on: OVCAR-4 ovarian
[35] = tested on: OVCAR-5 ovarian
[36] = tested on: OVCAR-8 ovarian
[37] = tested on: PC-3 prostate
[38] = tested on: RPMI-8226 leukemia
[39] = tested on: RXF 393 renal
[40] = tested on: SF-268 CNS
[41] = tested on: SF-295 CNS
[42] = tested on: SF-539 CNS
[43] = tested on: SK-MEL-2 melanoma
[44] = tested on: SK-MEL-28 melanoma
[45] = tested on: SK-MEL-5 melanoma
[46] = tested on: SK-OV-3 ovarian
[47] = tested on: SN12C renal
[48] = tested on: SNB-19 CNS
[49] = tested on: SNB-75 CNS
[50] = tested on: SR leukemia
[51] = tested on: SW-620 colon
[52] = tested on: T-47D breast
[53] = tested on: TK-10 renal
[54] = tested on: U251 CNS
[55] = tested on: UACC-257 melanoma
[56] = tested on: UACC-62 melanoma
[57] = tested on: UO-31 renal

What does the source list for `CN1CCc2c(sc3ncnc(N/N=C/c4ccc(Cl)c(Cl)c4)c23)C1`?
GI50 [1]: 12.4 µM; TGI [1]: 32.1 µM; GI50 [2]: 19.9 µM; TGI [2]: 35.6 µM; GI50 [3]: 11 µM; TGI [3]: 32.1 µM; GI50 [4]: 15.1 µM; TGI [4]: 31.5 µM; GI50 [5]: 14 µM; TGI [5]: 33 µM; GI50 [6]: 15.2 µM; TGI [6]: 29.1 µM; GI50 [7]: 14 µM; TGI [7]: > 100 µM; GI50 [8]: 10.6 µM; TGI [8]: 27.5 µM; GI50 [9]: 14.5 µM; TGI [9]: 28.5 µM; GI50 [10]: 19.1 µM; TGI [10]: 39 µM; GI50 [11]: 9.8 µM; TGI [11]: 25.7 µM; GI50 [12]: 13.7 µM; TGI [12]: 44.4 µM; GI50 [13]: 6.61 µM; TGI [13]: 22.2 µM; GI50 [14]: 2.04 µM; TGI [14]: 4.83 µM; GI50 [15]: 10.2 µM; TGI [15]: 41.4 µM; GI50 [16]: 7.63 µM; TGI [16]: 34.3 µM; GI50 [17]: 22.1 µM; TGI [17]: 65.8 µM; GI50 [18]: 13.6 µM; TGI [18]: 29.3 µM; GI50 [19]: 15.6 µM; TGI [19]: 31.8 µM; GI50 [20]: 12.5 µM; TGI [20]: 57 µM; GI50 [21]: 17.9 µM; TGI [21]: 34 µM; GI50 [22]: 17.6 µM; TGI [22]: 43.8 µM; GI50 [23]: 14.1 µM; TGI [23]: 28.5 µM; GI50 [24]: 3.94 µM; TGI [24]: 18.6 µM; GI50 [25]: 12.4 µM; TGI [25]: 26.8 µM; GI50 [26]: 18.2 µM; TGI [26]: 34.4 µM; GI50 [27]: 11.9 µM; TGI [27]: 43.6 µM; GI50 [28]: 77.9 µM; TGI [28]: > 100 µM; GI50 [29]: 13.5 µM; TGI [29]: 31.2 µM; GI50 [30]: 16.4 µM; TGI [30]: 34.7 µM; GI50 [31]: 11.7 µM; TGI [31]: 28.3 µM; GI50 [32]: 14.3 µM; TGI [32]: 34.1 µM; GI50 [33]: 15.7 µM; TGI [33]: 30.1 µM; GI50 [34]: 15.5 µM; TGI [34]: 30.9 µM; GI50 [35]: 15.3 µM; TGI [35]: 30.9 µM; GI50 [36]: 14.1 µM; TGI [36]: 39.7 µM; GI50 [37]: 18.1 µM; TGI [37]: 43.9 µM; GI50 [38]: 17 µM; TGI [38]: 66.4 µM; GI50 [39]: 12.8 µM; TGI [39]: 28.1 µM; GI50 [40]: 16.5 µM; TGI [40]: 39.4 µM; GI50 [41]: 13 µM; TGI [41]: 27.9 µM; GI50 [42]: 13.8 µM; TGI [42]: 29.8 µM; GI50 [43]: 38.4 µM; TGI [43]: > 100 µM; GI50 [44]: 13.7 µM; TGI [44]: 29.8 µM; GI50 [45]: 13.7 µM; TGI [45]: 28.5 µM; GI50 [46]: 17.1 µM; TGI [46]: 34.8 µM; GI50 [47]: 11.5 µM; TGI [47]: 26.3 µM; GI50 [48]: 15.4 µM; TGI [48]: 35.6 µM; GI50 [49]: 14.6 µM; TGI [49]: 28.6 µM; GI50 [50]: 2.52 µM; TGI [50]: 8.04 µM; GI50 [51]: 12.1 µM; TGI [51]: 29.8 µM; GI50 [52]: 19.9 µM; TGI [52]: 49.9 µM; GI50 [53]: 21.2 µM; TGI [53]: 36.1 µM; GI50 [54]: 17.1 µM; TGI [54]: 35.8 µM; GI50 [55]: 14.8 µM; TGI [55]: 30.2 µM; GI50 [56]: 14.9 µM; TGI [56]: 29.6 µM; GI50 [57]: 10.1 µM; TGI [57]: 22.7 µM
